Data on twelve compounds can be found in patent US10028961B2, “Therapeutically active compounds and their methods of use” (AGIOS PHARMACEUTICALS, INC., priority 2013, dated 2018).

In experiment [1] the test system is Neurosphere cells (TS603). Kind of experiment: Cellular assay for IDH1m R132H inhibitors, 2-HG by LC-MS in neurosphere cells (TS603). The following applies: 2-HG in media at 48 hours. The format is cell-based. In short, it runs like this: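 TS603 neurosphere cells in NeuroCult medium were dosed with compound (0.25% DMSO final) at 37 C, 5% CO2. After 48 hours, medium 2-HG was measured by LC-MS. At 72 hours, viability was read by CellTiter-Glo luminescence.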

The target of experiment [2] is IDH1 wt/IDH1 R132H heterodimer (Homo sapiens (Human), UniProt O75874, R132H). Put plainly: In vitro assay for IDH1m R132H inhibitors, IDH1 wt/IDH1 R132H heterodimer, NADPH depletion (diaphorase/resazurin). Format: biochemical. In short, it runs like this:
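Read-out is NADPH left after α-KG reduction to 2-HG, measured via resorufin fluorescence after 5 min diaphorase/resazurin step at 25° C. Enzyme is sf9-expressed IDH1wt-his/IDH1R132H-flag heterodimer, pre-incubated 1 hr at room temperature with compound and cofactor. IC50s from DMSO stocks diluted 1:50.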
On the technique in general: Alamar Blue is a resazurin reagent that responds to reducing activity.

The target of another experiment is IDH2 R140Q (Homo sapiens (Human), UniProt P48735, R140Q). Put plainly: In vitro assay for IDH2m R140Q inhibitors, cofactor depletion assay. The format is biochemical. The following applies: IDH2 R140Q enzyme. The method in brief:
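Remaining cofactor measured fluorimetrically: diaphorase/resazurin Stop Mix […], halting the reaction. Before that, mutant enzyme and compound sat 1 h at RT, then substrate mix (4 μM NADPH, 1.6 mM α-KG) was added for 16 h at RT.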

The target in experiment [3] is IDH1-R132H homodimer enzyme (Homo sapiens (Human), UniProt O75874, R132H). Kind of experiment: In vitro assay IDH1-R132H homodimer, NADPH depletion assay with NADPH/NADP preincubation. The format is biochemical. Conditions: 5 μM NADPH and 37.5 μM NADP. Here is the method:
The following describes the experimental procedures that can be used to obtain data on columns 3 and 5 of Table 5.
A test compound is prepared as 10 mM stock in DMSO and diluted to 50× final concentration in DMSO, for a 50 μl reaction mixture. IDH enzyme activity converting alpha-ketoglutarate to 2-hydroxyglutaric acid is measured using a NADPH depletion assay. In the assay the remaining cofactor is measured at the end of the reaction with the addition of a catalytic excess of diaphorase and resazurin, to generate a fluorescent signal in proportion to the amount of NADPH remaining. […] The reaction is started with the addition of 10 μl of Substrate Mix ([…], 5 mM alpha-ketoglutarate, in Assay Buffer) and the mixture is incubated for 60 minutes at room temperature.

The test system of experiment [4] is U87MG pLVX-IDH2 R140Q-neo cells. Put plainly: U87MG pLVX-IDH2 R140Q-neo cell based assay, 2-HG by LC-MS. The following applies: Homo sapiens, U-87 MG.
The mark [5] stands for this setting: IDH1 wt/R132H heterodimer, NADPH/NADP, not saturated, read-out: IDH1 wt/R132H NADPH/NADP IC50 not saturated.

Like-named read-outs stand apart in the source and are kept apart here.

Sequence of IDH2 R140Q (P48735 40-452 R140Q): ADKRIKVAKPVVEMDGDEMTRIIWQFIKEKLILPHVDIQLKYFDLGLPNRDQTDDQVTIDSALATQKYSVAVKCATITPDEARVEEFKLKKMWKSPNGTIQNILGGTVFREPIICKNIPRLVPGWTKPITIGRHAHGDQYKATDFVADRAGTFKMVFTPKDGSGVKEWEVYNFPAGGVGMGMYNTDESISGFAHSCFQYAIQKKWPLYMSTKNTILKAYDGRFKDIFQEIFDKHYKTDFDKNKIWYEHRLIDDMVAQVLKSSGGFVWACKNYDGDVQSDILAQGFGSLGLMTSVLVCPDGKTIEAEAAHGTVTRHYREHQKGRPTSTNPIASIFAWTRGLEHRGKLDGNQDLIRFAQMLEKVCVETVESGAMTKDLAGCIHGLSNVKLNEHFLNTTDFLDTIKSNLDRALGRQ
Sequence of IDH1-R132H homodimer enzyme (O75874 whole entry R132H): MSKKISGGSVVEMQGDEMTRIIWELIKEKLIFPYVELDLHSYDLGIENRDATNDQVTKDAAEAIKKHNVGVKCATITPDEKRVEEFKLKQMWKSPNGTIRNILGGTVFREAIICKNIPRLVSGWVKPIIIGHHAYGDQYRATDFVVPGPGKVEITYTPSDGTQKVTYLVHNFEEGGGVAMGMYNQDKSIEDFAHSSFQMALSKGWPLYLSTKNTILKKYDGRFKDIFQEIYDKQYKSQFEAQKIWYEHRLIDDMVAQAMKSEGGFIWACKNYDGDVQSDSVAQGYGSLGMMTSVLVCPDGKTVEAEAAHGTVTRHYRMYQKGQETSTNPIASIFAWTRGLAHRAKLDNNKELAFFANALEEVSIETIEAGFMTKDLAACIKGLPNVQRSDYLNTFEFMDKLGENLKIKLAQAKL
Sequence of IDH1 wt/IDH1 R132H heterodimer (O75874 whole entry R132H): as above
Sequence of IDH1 wt/IDH1 R132H heterodimer (O75874 whole entry, stated change not applied): as the sequence (O75874 whole entry R132H) above, with H132R counted along it

As for `Fc1cc(F)cc(Nc2nc(NC3CC(F)(F)C3)nc(-c3cncc(Cl)n3)n2)c1` [Compound 120], the IC50 (in experiment [1]; in experiment [2] (setting [5]); against IDH2 R140Q; in experiment [3]; in experiment [4]) was < 50 nM throughout.

As for `CC(Nc1nc(Nc2ccnc(C(F)(F)F)c2)nc(-n2ccc(C(F)(F)F)n2)n1)C(F)(F)F` (centres unmarked) [Compound 177], the IC50 in experiment [1] is < 50 nM; in experiment [2] (setting [5]), < 50 nM; against IDH2 R140Q, < 50 nM; in experiment [3], 50 to 100 nM; in experiment [4] it was < 50 nM.

In the case of `N#CC1(c2cc(Nc3nc(NC4CCC(F)(F)C4)nc(-n4ccc(C(F)(F)F)n4)n3)ccn2)CC1` (centres unmarked) [Compound 185], the IC50 (in experiment [1]; in experiment [2] (setting [5]); at IDH2 R140Q; in experiment [3]; in experiment [4]) was < 50 nM in each case.

With `Fc1cc(F)cc(Nc2nc(N[C@H]3CCC(F)(F)C3)nc(-c3cncc(C(F)(F)F)n3)n2)c1` [Compound 368], the IC50 in experiment [1] was < 50 nM; in experiment [2] (IDH1 wt/IDH1 R132H heterodimer, 300 μM NADP (saturated), read-out: IDH1 wt/R132H NADPH/NADP IC50 saturated) it was < 50 nM; at IDH2 R140Q, < 50 nM; in experiment [3] it was < 50 nM; in experiment [4], < 50 nM.

`FC(F)c1ccnc(-c2nc(NC3CCC(F)(F)CC3)nc(NC3CCC(F)(F)CC3)n2)n1` [Compound 308]: the IC50 was 100 to 1000 nM in experiment [1]; > 1000 nM in experiment [2] (setting [5]); 100 to 1000 nM against IDH2 R140Q; > 1000 nM in experiment [3]; 100 to 1000 nM in experiment [4].

Take `CC(F)(F)c1nc(-c2nc(NC3CCC(F)(F)CC3)nc(NC3CCC(F)(F)CC3)n2)cs1` [Compound 283]: the IC50 is 100 to 1000 nM in experiment [2] (setting [5]), 100 to 1000 nM against IDH2 R140Q, > 1000 nM in experiment [3] and 100 to 1000 nM in experiment [4].

As for `FC1(F)CC[C@@H](Nc2nc(Nc3ccnc(C(F)(F)F)c3)nc(-c3cccc(C(F)(F)F)n3)n2)C1` [Compound 172], the IC50 (in experiment [1]; in experiment [2] (setting [5]); against IDH2 R140Q; in experiment [3]; in experiment [4]) was < 50 nM in each case.

For `FC1(F)CCC(Nc2nc(NC3CCC(F)(F)C3)nc(-c3cncc(C(F)(F)F)n3)n2)C1` (centres unmarked) [Compound 138], the IC50 (in experiment [1]; in experiment [2] (setting [5]); against IDH2 R140Q; in experiment [3]; in experiment [4]) was < 50 nM throughout.

For `COCCc1ccnc(-c2nc(NC3CCC(F)(F)CC3)nc(NC3CCC(F)(F)CC3)n2)n1` [Compound 315], the IC50 in experiment [2] (setting [5]) and in experiment [3] was > 1000 nM each time.

For the compound `Cc1nc(-c2nc(NC3CC(F)(F)C3)nc(NC3CC(F)(F)C3)n2)c[nH]1` [Compound 317], the IC50 in experiment [2] (setting [5]) and in experiment [3] was > 1000 nM each time.

Regarding `FC1(F)CCC(Nc2nc(Nc3ccnc(C(F)(F)F)c3)nc(-n3ccc(C(F)(F)F)n3)n2)C1` (centres unmarked) [Compound 173], the IC50 (in experiment [1]; in experiment [2] (setting [5]); on IDH2 R140Q; in experiment [3]; in experiment [4]) was < 50 nM throughout.

`Oc1ccc(F)c(-c2nc(NC3CCC(F)(F)CC3)nc(NC3CCC(F)(F)CC3)n2)n1` [Compound 309]: the IC50 in experiment [2] (setting [5]) and in experiment [3] was > 1000 nM throughout.
